In a compilation of properties of binary mixtures (doi:10.1021/acs.jced.0c00426):

Experiment: xn = mol fraction of the nth substance listed
Conditions: 101.3 kPa

CNc1ccccc1 + CCCCCCCCn1cc[n+](C)c1.F[B-](F)(F)F
x2 = 0
Conditions | speed of sound [m/s]
298.15 K | 1565
303.15 K | 1546
308.15 K | 1527
313.15 K | 1508
318.15 K | 1489
323.15 K | 1471

CNc1ccccc1 + CCCCCC[n+]1ccn(C)c1.F[B-](F)(F)F
speed of sound [m/s]
Conditions | x2 = 0 | x2 = 0.1058 | x2 = 0.2201 | x2 = 0.3079 | x2 = 0.395 | x2 = 0.501 | x2 = 0.6034 | x2 = 0.7024 | x2 = 0.804 | x2 = 0.8984
293.15 K | 1584 | – | 1589 | 1580 | 1569 | 1557 | – | 1538 | 1531 | 1526
298.15 K | 1565 | 1578 | 1577 | 1569 | – | 1549 | 1539 | 1532 | 1526 | 1523
303.15 K | 1546 | – | 1560 | 1554 | 1545 | 1535 | – | 1519 | 1513 | 1510
308.15 K | – | 1545 | 1544 | – | – | – | 1512 | 1505 | 1501 | 1497
313.15 K | 1508 | 1527 | 1528 | 1523 | 1516 | 1507 | 1499 | 1493 | 1488 | –
318.15 K | 1489 | – | 1511 | 1507 | 1501 | – | 1486 | 1480 | 1476 | 1472
323.15 K | – | 1490 | 1495 | 1492 | 1486 | 1479 | 1473 | 1467 | 1464 | 1460

CNc1ccccc1 + CCCC[n+]1ccn(C)c1.F[B-](F)(F)F
speed of sound [m/s]
Conditions | x2 = 0 | x2 = 0.0973 | x2 = 0.184 | x2 = 0.2982 | x2 = 0.3909 | x2 = 0.5025 | x2 = 0.5928 | x2 = 0.7005 | x2 = 0.7963 | x2 = 0.901
293.15 K | 1584 | 1598 | 1602 | – | – | 1594 | – | 1586 | – | 1580
298.15 K | – | – | 1587 | 1590 | 1586 | 1580 | 1577 | 1573 | 1571 | 1569
303.15 K | 1546 | 1564 | 1572 | 1575 | 1572 | – | – | – | – | 1558
308.15 K | 1527 | – | 1555 | 1560 | – | 1554 | – | 1550 | – | 1547
313.15 K | 1508 | 1532 | 1540 | 1544 | 1544 | 1543 | 1541 | 1539 | – | 1536
318.15 K | – | 1515 | 1524 | 1529 | 1530 | – | 1528 | 1527 | 1526 | 1525
323.15 K | 1471 | 1498 | 1508 | 1514 | – | 1516 | 1515 | 1516 | 1515 | 1516

CCCCCCCCn1cc[n+](C)c1.F[B-](F)(F)F + CNc1ccccc1
speed of sound [m/s]
Conditions | x1 = 0.1032 | x1 = 0.2037 | x1 = 0.285 | x1 = 0.383 | x1 = 0.4978 | x1 = 0.5939 | x1 = 0.7016 | x1 = 0.7942 | x1 = 0.9002 | x1 = 1
293.15 K | 1582 | 1571 | – | 1549 | 1536 | 1526 | – | 1509 | 1502 | 1499
298.15 K | – | 1555 | 1545 | 1533 | 1521 | 1512 | 1502 | 1495 | 1488 | 1485
303.15 K | 1548 | 1538 | 1529 | 1518 | 1507 | 1499 | 1489 | – | 1475 | 1472
308.15 K | 1531 | 1522 | 1513 | 1503 | – | – | – | 1469 | 1462 | –
313.15 K | 1514 | – | 1498 | 1489 | 1479 | – | 1463 | 1456 | 1450 | 1446
318.15 K | 1496 | 1491 | 1483 | – | 1465 | 1458 | 1451 | 1444 | 1438 | 1433
323.15 K | 1479 | – | 1468 | 1460 | 1451 | 1444 | – | 1431 | 1426 | 1421

CCCCCC[n+]1ccn(C)c1.F[B-](F)(F)F + CNc1ccccc1
x1 = 1
Conditions | speed of sound [m/s]
298.15 K | 1519
303.15 K | 1507
308.15 K | 1494
313.15 K | 1482
318.15 K | 1470
323.15 K | 1458

CCCC[n+]1ccn(C)c1.F[B-](F)(F)F + CNc1ccccc1
x1 = 1
Conditions | speed of sound [m/s]
303.15 K | 1555
313.15 K | 1532
318.15 K | 1521
323.15 K | 1511
